Assay results published in US20080267894A1, “Acerola Fruit-Derived Pectin and Its Application” (NICHIREI FOODS INC., priority 2005, published 2008).

Legend:
[1] = Anti-oxidation activity (rhodan-iron method) using linoleic acid, suppression of auto-oxidation; assay type: biochemical; conditions: for Absorbance, auto-oxidation of linoleic acid: specimen 0.02% (W/W)
Method: Linoleic acid is unsaturated fatty acid that is contained richly also in human body. The unsaturated fatty acid is characterized by being auto-oxidized when it is allowed to stand, so as to be lipid peroxide. In this experiment, linoleic acid is mixed with a sample, the mixture is allowed to stand at 40° C., and then antioxidative activities are evaluated based on increases in the amounts of lipid oxides purified from linoleic acid. […] The resulting mixture was put into a brown screw cap bottle, so that 10 ml of a reaction solution was prepared. When a specimen was a water-insoluble component, the specimen was dissolved in the above 99.5% ethanol, so that a reaction solution was prepared. When a specimen was a water-soluble component, the specimen was dissolved in the above distilled water, so that a reaction solution was prepared. In addition, in this test method, the term “specimen concentration” indicates a specimen concentration in 2 ml of 99.5% ethanol or 2 ml of distilled water. Therefore, the final concentration of each specimen in each reaction solution was one fifth of the predetermined concentration. Furthermore, regarding specimens positive for antioxidative activities, similar procedures were performed for BHA so that it is contained in appropriate amounts in reaction solutions. Positive control specimens were thus prepared. A control used herein was prepared by adding 2 ml of 99.5% ethanol and 2 ml of distilled water alone to the reaction solution. Such reaction solution stored in the dark at 40° C. was used for the main test and such reaction solution stored at 4° C. was used for a blank test. Test substances were sampled with time and then measured as described below. Tests were conducted for 2 or more weeks. 0.1 ml of 2×10^2M ferrous chloride (3.5% hydrochloric acid solution) was added to the mixture of 0.1 ml of a test substance, 9.7 ml of 75% ethanol, and 0.1 ml of 30% ammonium rhodanate aqueous solution. At precisely 3 minutes after addition, absorbance was measured at 500 nm. Absorbance was similarly measured in a blank test: Δ absorbance=[absorbance in main test]−[absorbance in blank test]. The higher the absorbance, the higher the amount of oxidized lipids. […] Furthermore, when oxidation of a sample is initiated, the absorbance increases. After the absorbance reaches a peak, the absorbance decreases as the amount of a sample to be oxidized decreases. It can be said that the sooner the absorbance reaches a peak, the weaker the anti-oxidation activity. Furthermore, anti-oxidation activities of the samples were compared in terms of oxidation ratio (%). Oxidation ratio (%) was obtained by the following formula using the oxidation (absorbance) of the control as 100%. Oxidation ratio (%)=([Δ absorbance of sample]/[Δ absorbance of control])×100 [Formula 1] It can be said that the higher the oxidation ratio (%), the lower the anti-oxidation activity.

tyrosinase = assay: Effect of inhibiting tyrosinase (skin-whitening activity); assay type: biochemical, mushroom
Method: A test concerning activity of inhibiting tyrosinase, which is an enzyme that generates a melanin pigment, was conducted by the following procedure. • (1) *4 mL of an L-DOPA aqueous solution, **4 mL each of samples diluted at different concentrations, and 2 mL of a 0.2 M phosphate buffer (pH 6.8) were mixed. The mixture was heated in a thermostatic bath at 37° C. […] Changes in absorbance were automatically measured for over 20 seconds from the start to the end at intervals of 0.1 second. The rise velocity of absorbance between 4 seconds and 10 seconds after the start of measurement was calculated. *Tyrosinase solution: Solution obtained by dissolving tyrosinase (SIGMA) derived from a mushroom in a 0.2 M phosphate buffer (pH 6.8) at a concentration of 300 units/mL and then conducting filtering using a 0.2 μm filter • (3) To obtain a blank value, measurement was performed using a 0.2 M phosphate buffer instead of a sample and then tyrosinase-inhibiting activity was calculated by the equation below. Furthermore, a substance that could not be dissolved in a phosphate buffer was dissolved in dimethyl sulfoxide (DMSO), diluted with a phosphate buffer, and then measured. […]
Tyrosinase activity inhibition ratio (%)=100−((absorbance rise velocity of sample)/(absorbance rise velocity of blank))×100

[2] = DPPH radical scavenging activity test (Test method 1.2); assay type: biochemical; conditions: Table 7
Method: Antioxidative activities were evaluated using an ethanol solution of diphenyl-p-picrylhydradil (DPPH), which is a stable radical. 1200 μl of ethanol and 400 μl of a specimen (adjusted to any concentration) were mixed with 1600 μl of a 250 mM acetate buffer (pH=5.5), followed by preincubation at 30° C. for 5 minutes. 800 μl of a 500 μM DPPH/ethanol solution was added to the solution and mixed therewith, and the resultant was then allowed to stand at 30° C. for 30 minutes. Absorbance was measured at 517 nm. A similar procedure was performed also for α-tocopherol and then the result was used as a positive control. The control used herein was prepared by performing a similar procedure using a solvent instead of a sample solution. Radical scavenging ratio was calculated by the following equation using the thus measured absorbances.
Scavenging ratio (%)=(1−[absorbance of sample]/[absorbance of control])×100
The above measurement for finding scavenging ratios was performed by varying stepwise the concentration of a sample in a solution. The concentration of a sample solution leading to a 50% DPPH radical scavenging ratio was found and designated the concentration required for scavenging 50% of the DPPH radicals. Thus, it can be said that the lower the numerical value, the higher the radical scavenging ability.

animal cells [3] = conditions: cited from earlier work
brown guinea pigs = assay: Skin-whitening test: suppression of pigmentation after UV irradiation; assay type: in vivo; conditions: oral, dose of ascorbic acid 300 mg/kg animal weight/day, 42 days; UVB on days 0, 2, 4; observed days 7 to 42
Method: The effect of suppressing pigmentation after UV irradiation was examined using brown guinea pigs (SPF). The brown guinea pigs are of an animal species that undergoes pigmentation because of UV irradiation in a manner similar to humans and of a line that has been clearly maintained. Six guinea pigs were used for each group in this test. To promote pigmentation, UV (UVB) irradiation was performed from a distance of 40 cm using five SE lamps (wavelength between 250 nm and 350 nm, […] Corporation) installed in an UV irradiation apparatus (Y-798-II, Orion Electric Co., Ltd.). […] This time was designated the time for UV irradiation in this test. Each irradiation site was a 2 cm×2 cm square area located on either the left or right across the midline of the back of a guinea pig that had been sheared using electric clippers and then shaved using an electric shaver. […] Pigmentation was measured as follows. Before the initial administration (before irradiation) on the day of the initiation of administration and on days 7, 14, 21, 28, 35, and 42 after initial administration, L value (lightness) of irradiated sites were measured using a colorimeter (CR-300, Minolta Co., Ltd.) and then the ΔL value (L value on the day of observation-L value before irradiation) was found. […]

animal cells [4] = conditions: animal cell test; cited from earlier work
[5] = Experiment 1, 1 day of storage at 40° C.
[6] = Experiment 1, 4 days of storage at 40° C.
[7] = Experiment 1, 5 days of storage at 40° C.
[8] = Experiment 1, 8 days of storage at 40° C.
[9] = Experiment 1, 11 days of storage at 40° C.
[10] = Experiment 1, 15 days of storage at 40° C.

3(2)-t-Butyl-4-hydroxyanisole [BHA]
Absorbance, auto-oxidation of linoleic acid [1, 5]: 0.0000 | Absorbance, auto-oxidation of linoleic acid [1, 6]: 0.0105 | Absorbance, auto-oxidation of linoleic acid [1, 7]: 0.0111 | Absorbance, auto-oxidation of linoleic acid [1, 8]: 0.0313 | Absorbance, auto-oxidation of linoleic acid [1, 9]: 0.0559 | Absorbance, auto-oxidation of linoleic acid [1, 10]: 0.0752 | Absorbance, auto-oxidation of linoleic acid ([1]; Experiment 2, 1 day of storage at 40° C.): 0.0001 | Absorbance, auto-oxidation of linoleic acid ([1]; Experiment 2, 4 days of storage at 40° C.): 0.0088 | Absorbance, auto-oxidation of linoleic acid ([1]; Experiment 2, 5 days of storage at 40° C.): 0.0121 | Absorbance, auto-oxidation of linoleic acid ([1]; Experiment 2, 8 days of storage at 40° C.): 0.0269 | Absorbance, auto-oxidation of linoleic acid ([1]; Experiment 2, 14 days of storage at 40° C.): 0.0609 | Absorbance, auto-oxidation of linoleic acid ([1]; Experiment 2, 18 days of storage at 40° C.): 0.0866

OCC1OC2O[C@@H]3[C@@H](c4ccc(O)c(O)c4)Oc4cc(O)cc(O)c4[C@@H]3OC2C(O)C1O (stereo partly shown) [Aceronidin]
skin-whitening effect (effect of inhibiting tyrosinase), in words (tyrosinase): almost no skin-whitening effect (effect of inhibiting tyrosinase) | Tyrosinase-inhibiting activity (tyrosinase; L-DOPA substrate, 37° C., sample concentration not given): 3.1% | 50% radical scavenging activity concentration [2]: 80 ppm

O=C[C@H](O)[C@@H](O)[C@@H](O)[C@H](O)C(=O)O [galacturonic acid]
Effect of suppressing melanin pigment generation (animal cells [3]): has not been confirmed

O=C1O[C@H]([C@@H](O)CO)C(O)=C1O [vitamin C, ascorbic acid]
ΔL value of UV-irradiated skin (pigmentation), FIG. 21, in words (brown guinea pigs): measurement values were almost the same | Antioxidative activities for lipids (FIG. 15), in words ([1]; specimen concentration 0.02% (W/W)): no antioxidative activities at all | Antioxidative activities for lipids (FIG. 15), in words ([1]; specimen concentration 0.04% (W/W)): no antioxidative activities at all

(±)-α-Tocopherol
50% radical scavenging activity concentration [2]: 127 ppm | Absorbance, auto-oxidation of linoleic acid [1, 5]: 0.0195 | Absorbance, auto-oxidation of linoleic acid [1, 6]: 0.0827 | Absorbance, auto-oxidation of linoleic acid [1, 7]: 0.1014 | Absorbance, auto-oxidation of linoleic acid [1, 8]: 0.1326 | Absorbance, auto-oxidation of linoleic acid [1, 9]: 0.1551 | Absorbance, auto-oxidation of linoleic acid [1, 10]: 0.1796

oligogalacturonic acid
Effect of suppressing melanin production (animal cells [4]): exerted an effect of suppressing melanin production

polygalacturonic acid
Effect of suppressing melanin pigment generation (animal cells [3]): has not been confirmed
